Laboratory results: patent US11052092B2, “N-{[2-(piperidin-1-yl)phenyl](phenyl)methyl}-2-(3-oxo-3,4-dihydro-2H-1,4-benzoxazin-7-yl)acetamide derivatives and related compounds as ROR-gamma modulators for treating autoimmune diseases” (Genfit, priority 2017, dated 2021)
Where “and” joins values, the source holds several entries; their conditions need not be identical. Identical values can stand only once.

Tests used:
human RORγt = target: T1, human RORγt (Homo sapiens, UniProt P51449); experiment: RORE Luciferase/RORγt transactivation assay; format: cell-based; conditions: COS-7 cells transfected with human IL-17 promoter luciferase reporter and RORγt plasmid; 20 h with compound; read-out: IC50, RORγt activity inhibition
T1 construct: the full-length cDNA of human RORγt; expressed in transfected cells; host or cells: COS-7 (monkey kidney)
T1 sequence (P51449 1-497 isoform P51449-2): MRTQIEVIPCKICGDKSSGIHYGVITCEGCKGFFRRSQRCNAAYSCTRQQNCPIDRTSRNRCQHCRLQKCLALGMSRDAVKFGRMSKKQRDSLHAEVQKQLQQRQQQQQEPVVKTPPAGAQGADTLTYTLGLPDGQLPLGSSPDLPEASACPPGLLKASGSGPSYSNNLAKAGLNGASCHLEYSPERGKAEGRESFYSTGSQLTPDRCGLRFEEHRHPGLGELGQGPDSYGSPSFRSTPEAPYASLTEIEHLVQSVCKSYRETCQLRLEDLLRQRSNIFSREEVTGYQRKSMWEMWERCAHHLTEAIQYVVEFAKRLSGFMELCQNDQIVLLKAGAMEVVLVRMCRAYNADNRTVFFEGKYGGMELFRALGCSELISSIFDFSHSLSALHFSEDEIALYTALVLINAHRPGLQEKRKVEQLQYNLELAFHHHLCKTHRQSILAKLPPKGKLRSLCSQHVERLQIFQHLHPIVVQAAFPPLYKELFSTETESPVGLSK
In short: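 COS-7 cells were transiently co-transfected with a human IL-17 promoter (RORE/CNS)–luciferase reporter and a RORγt expression plasmid, then seeded at 10000 cells/well in serum-free, phenol red-free DMEM. Compounds were added at 0.3% DMSO final. Luciferase was read with Steady-Glo, and IC50 and Emax were derived.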

[1] = tested on: Murine EL-4 lymphoma cell line overexpressing human RORγt; experiment: IL-17 secretion from EL4 murine lymphoma; format: cell-based; conditions: Mus musculus; human RORγt-transfected EL4 cells, PMA (10 ng/mL) and ionomycin (1 μM), 24 h; read-out: IC50, IL-17 secretion inhibition
In short: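 EL-4 cells electroporated with hRORγt plasmid, seeded at 150000 cells/well and pretreated with compound for 24 h, then stimulated with PMA (10 ng/mL) plus ionomycin (1 μM final) with compound for a further 24 h at 37 °C. IL-17 in supernatant measured by HTRF or ELISA.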

[2] = target: T2, RORγt ligand-binding domain (RORγt-LBD) (Homo sapiens, UniProt P51449); experiment: Time-resolved FRET (TR-FRET) RORγt coactivator assay; conditions: GST-RORγ-LBD, biotinylated RIP140 peptide, 2 hours at room temperature
T2 construct: 20 nM recombinantly expressed RORγ-LBD fused to GST
T2 sequence (P51449 269-508 limits assumed): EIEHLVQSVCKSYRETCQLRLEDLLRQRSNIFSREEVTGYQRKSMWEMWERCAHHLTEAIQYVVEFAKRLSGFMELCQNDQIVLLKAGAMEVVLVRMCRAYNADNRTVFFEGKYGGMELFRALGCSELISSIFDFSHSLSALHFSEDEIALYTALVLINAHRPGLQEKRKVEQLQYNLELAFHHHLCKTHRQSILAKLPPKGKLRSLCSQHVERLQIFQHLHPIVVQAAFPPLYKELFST
Description: Time-resolved FRET (TR-FRET) RORγt coactivator assay was used to identify RORγ modulator compounds with ligand-dependent coactivator displacement. The assay uses a d2-labeled anti-GST antibody, synthetic N-terminally biotinylated peptide which is derived from nuclear receptor coactivator protein RIP140, and a RORγt ligand-binding domain (RORγt-LBD) that is tagged with glutathione-S-transferase (GST). The influence of compounds on the RORγ-peptide interaction relies on the binding dependent energy transfer from a donor to an acceptor fluorophor attached to the binding partner of interest. […] For reduction of background from compound fluorescence, TR-FRET method makes use of generic fluorophore labels and time resolved detection.
The assays were done in a final volume of 20 μl in a 384 well plate in a CHAPS buffer (2 mM CHAPS; 1 mM DTT, 2 mM EDTA; 0.1% BSA), containing 20 nM recombinantly expressed RORγ-LBD fused to GST, 30 nM N-terminally biotinylated peptide, 1 nM streptavidin-terbium conjugate and 20 nM d2 labeled-anti-GST. Test compounds were diluted using 10 mM stock solution. The range of the final compound concentrations used in this test was from 0.3 nM to 30 μM (logarithmic scale). DMSO content of the samples was kept at 1%. The assay was equilibrated for 2 hours in the dark at room temperature in 384 well plates (Falcon). The signal was detected by an Ultra384 reader (TECAN). […] Compounds that promote coactivator displacement induce a concentration-dependent decrease in time-resolved fluorescent signal. Data were collected and analyzed using GraphPad Prism software (GraphPad Software V5.02, San Diego Calif. USA). IC50 in μM and Emax in % were reported for each compound.

Row | SMILES | IC50 (human RORγt) | IC50 [1] [nM] | IC50 [2] [nM] | melting point [°C]
1 | Cc1ccc(C(NC(=O)C2(c3ccc4c(c3)CS(=O)(=O)N4)CC2)c2ccc(C)o2)c(N(C)C)c1 (centres unmarked) [Cpd. 71, N-{[2-(dimethylamino)-4-methylphenyl](5-methylfuran-2-yl)methyl}-1-(2,2-dioxo-1,3-dihydro-2,1-benzothiazol-5-yl)cyclopropane-1-carboxamide] | 10 to 100 nM | 100 to 1000 | < 10 | –
2 | Cc1ccc(C(NC(=O)Cc2ccc3c(c2)C(=Cc2cnc(N)s2)C(=O)N3)c2ccc(C)o2)c(N2CCCCC2)c1 (centres unmarked) [Cpd. 44, 2-{3-[(2-amino-1,3-thiazol-5-yl)methylidene]-2-oxo-2,3-dihydro-1H-indol-5-yl}-N-{[4-methyl-2-(piperidin-1-yl)phenyl](5-methylfuran-2-yl)methyl}acetamide] | 100 to 1000 nM | 1000 to 10000 | 100 to 1000 | –
3 | CSc1ccc2cc(CC(=O)NC(c3ccc(C)o3)c3ccc(C)cc3N3CCCCC3)ccc2c1 (centres unmarked) [Cpd. 91, N-{[4-methyl-2-(piperidin-1-yl)phenyl](5-methylfuran-2-yl)methyl}-2-[6-(methylsulfanyl)naphthalen-2-yl]acetamide] | 10 to 100 nM | 100 to 1000 | 100 to 1000 | –
4 | Cc1ccc(C(NC(=O)C2(c3ccc4c(c3)OCC(=O)N4)CC2)c2ccc(C)o2)c(C)c1 (centres unmarked) [Cpd. 59, N-[(2,4-dimethylphenyl)(5-methylfuran-2-yl)methyl]-1-(3-oxo-3,4-dihydro-2H-1,4-benzoxazin-7-yl)cyclopropane-1-carboxamide] | < 10 nM | < 100 | < 10 | –
5 | Cc1ccc(C(NC(=O)C2(c3ccc4c(c3)C(=O)C(=O)N4)CC2)c2ccc(C)o2)c(C)c1 (centres unmarked) [Cpd. 125, N-[(2,4-dimethylphenyl)(5-methylfuran-2-yl)methyl]-1-(2,3-dioxo-2,3-dihydro-1H-indol-5-yl)cyclopropane-1-carboxamide] | 10 to 100 nM | < 100 | < 10 | –
6 | Cc1ccc(C(NC(=O)Cc2ccc3c(c2)CC(=O)N3)c2ccccc2)c(N2CCCCC2)c1 (centres unmarked) [Cpd. 16, N-{[4-methyl-2-(piperidin-1-yl)phenyl](phenyl)methyl}-2-(2-oxo-2,3-dihydro-1H-indol-5-yl)acetamide] | 100 to 1000 nM and 10 to 100 nM | 100 to 1000 | 10 to 100 | –
7 | Cc1ccc(C(NC(=O)Cc2ccc3[nH]c(C)nc3c2)c2ccc(C)o2)c(Br)c1 (centres unmarked) [Cpd. 77, N-[(2-bromo-4-methylphenyl)(5-methylfuran-2-yl)methyl]-2-(2-methyl-1H-1,3-benzodiazol-5-yl)acetamide] | 10 to 100 nM | 100 to 1000 | < 10 | –
8 | Cc1ccc(C(NC(=O)C2(c3ccc4c(c3)OCS(=O)(=O)N4)CC2)c2ccc(C)o2)c(C)c1 (centres unmarked) [Cpd. 124, N-[(2,4-dimethylphenyl)(5-methylfuran-2-yl)methyl]-1-(2,2-dioxo-1,3-dihydro-4,2,1-benzoxathiazin-6-yl)cyclopropane-1-carboxamide] | 10 to 100 nM | 100 to 1000 | < 10 | –

Other lines, results leading:

Row | IC50 (human RORγt) | IC50 [1] [nM] | IC50 [2] [nM] | melting point [°C] | SMILES
9 | 10 to 100 nM | 100 to 1000 | 10 to 100 | – | Cc1ccc(C(NC(=O)Cc2ccc3[nH]c(C)nc3c2)c2ccccc2)c(N2CCCC2)c1 (centres unmarked) [Cpd. 82, 2-(2-methyl-1H-1,3-benzodiazol-5-yl)-N-{[4-methyl-2-(pyrrolidin-1-yl)phenyl](phenyl)methyl}acetamide]
10 | 10 to 100 nM | < 100 | 100 to 1000 | – | Cc1ccc(C(NC(=O)Cc2ccc3[nH]cc(C)c3c2)c2ccc(C)o2)c(N2CCCCC2)c1 (centres unmarked) [Cpd. 64, 2-(3-methyl-1H-indol-5-yl)-N-{[4-methyl-2-(piperidin-1-yl)phenyl](5-methylfuran-2-yl)methyl}acetamide]
11 | 100 to 1000 nM | – | 10 to 100 | 70 | Cc1ccc(C(NC(=O)Cc2ccc3c(ccn3CCC(=O)O)c2)c2ccc(C)o2)c(Br)c1 (centres unmarked) [Cpd. 102, 3-[5-({[(2-bromo-4-methylphenyl)(5-methylfuran-2-yl)methyl]carbamoyl}methyl)-1H-indol-1-yl]propanoic acid]
12 | 10 to 100 nM | 100 to 1000 | < 10 | – | Cc1ccc(C(NC(=O)Cc2ccc3c(c2)CS(=O)(=O)N3)c2ccc(C)o2)c(N2CCCCC2)c1 (centres unmarked) [Cpd. 27, 2-(2,2-dioxo-1,3-dihydro-2,1-benzothiazol-5-yl)-N-{[4-methyl-2-(piperidin-1-yl)phenyl](5-methylfuran-2-yl)methyl}acetamide]
13 | 10 to 100 nM | < 100 | < 10 | – | Cc1ccc(C(NC(=O)C2(c3ccc4c(c3)CS(=O)(=O)N4)CC2)c2ccc(Cl)o2)c(C)c1 (centres unmarked) [Cpd. 87, N-[(5-chlorofuran-2-yl)(2,4-dimethylphenyl)methyl]-1-(2,2-dioxo-1,3-dihydro-2,1-benzothiazol-5-yl)cyclopropane-1-carboxamide]
14 | 10 to 100 nM | 100 to 1000 | 100 to 1000 | – | CCSc1nc2cc(CC(=O)NC(c3ccccc3)c3ccc(C)cc3Br)ccc2[nH]1 (centres unmarked) [Cpd. 92, N-[(2-bromo-4-methylphenyl)(phenyl)methyl]-2-[2-(ethylsulfanyl)-1H-1,3-benzodiazol-5-yl]acetamide]
15 | 100 to 1000 nM | – | 100 to 1000 | 91 | Cc1ccc(C(NC(=O)Cc2ccc3c(c2)/C(=C\C(C)C)C(=O)N3)c2ccc(C)o2)c(N2CCCCC2)c1 (centres unmarked) [Cpd. 48, N-{[4-methyl-2-(piperidin-1-yl)phenyl](5-methylfuran-2-yl)methyl}-2-[(3E)-3-(2-methylpropylidene)-2-oxo-2,3-dihydro-1H-indol-5-yl]acetamide]
16 | 1000 to 10000 nM | 1000 to 10000 | 100 to 1000 | – | Cc1ccc(C(NC(=O)Cc2ccc3[nH]c(=O)cc(C)c3c2)c2ccccc2)c(N2CCCCC2)c1 (centres unmarked) [Cpd. 11, N-{[4-methyl-2-(piperidin-1-yl)phenyl](phenyl)methyl}-2-(4-methyl-2-oxo-1,2-dihydroquinolin-6-yl)acetamide]
17 | 10 to 100 nM | 100 to 1000 | < 10 | – | Cc1ccc(C(NC(=O)Cc2ccc3c(c2)CCC3O)c2ccc(C)o2)c(N2CCCCC2)c1 (centres unmarked) [Cpd. 52, 2-(1-hydroxy-2,3-dihydro-1H-inden-5-yl)-N-{[4-methyl-2-(piperidin-1-yl)phenyl](5-methylfuran-2-yl)methyl}acetamide]
18 | 100 to 1000 nM | – | 1000 to 10000 | – | Cc1ccc(C(NC(=O)Cc2cccc3c2CN(S(C)(=O)=O)C3)c2ccc(C)o2)c(N2CCCCC2)c1 (centres unmarked) [Cpd. 50, 2-(2-methanesulfonyl-2,3-dihydro-1H-isoindol-4-yl)-N-{[4-methyl-2-(piperidin-1-yl)phenyl](5-methylfuran-2-yl)methyl}acetamide]
19 | 100 to 1000 nM | – | 10 to 100 | 65 | Cc1ccc(C(NC(=O)Cc2ccc3c(ccn3CCC(=O)O)c2)c2ccc(C)o2)c(C)c1 (centres unmarked) [Cpd. 101, 3-[5-({[(2,4-dimethylphenyl)(5-methylfuran-2-yl)methyl]carbamoyl}methyl)-1H-indol-1-yl]propanoic acid]
